# Counter-ions that a name gives are not always drawn.
# Target: T1, full length SGK1 (Homo sapiens, UniProt O00141)
# T1 construct: 125 μM full length SGK1 (Life Technologies Part #PR7358A); purchased Life Technologies PR7358A
# T1 sequence (O00141 1-431): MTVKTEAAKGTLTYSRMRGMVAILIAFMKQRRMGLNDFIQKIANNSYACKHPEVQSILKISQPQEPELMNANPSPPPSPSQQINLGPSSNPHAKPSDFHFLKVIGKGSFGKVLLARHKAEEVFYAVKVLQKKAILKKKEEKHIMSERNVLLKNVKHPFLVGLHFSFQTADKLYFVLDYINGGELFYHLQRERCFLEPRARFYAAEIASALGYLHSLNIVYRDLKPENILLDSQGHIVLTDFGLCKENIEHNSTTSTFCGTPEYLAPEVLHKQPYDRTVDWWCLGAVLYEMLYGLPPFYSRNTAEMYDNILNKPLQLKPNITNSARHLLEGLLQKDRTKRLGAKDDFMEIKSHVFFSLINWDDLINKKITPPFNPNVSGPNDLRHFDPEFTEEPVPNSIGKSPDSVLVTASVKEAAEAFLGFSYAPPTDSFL
# Experiment: SGK1 inhibition Assay A (Caliper LabChip electrophoretic separation of fluorescent peptide substrate and phosphorylated product)
# Assay type: biochemical
# Details: Assay A; 20 μM ATP, 40 min incubation; read-out: SGK1 IC50
row,SMILES,IC50 [nM]
1,"COC(=O)N1CC=C(c2cc(N3CCC[C@@H](NC(=O)c4sc(C(F)F)cc4OCCN4CCN(C)CC4)C3)c3c(N)ncnn23)C1 [Example 334, Methyl (R)-3-(4-amino-5-(3-(5-(difluoromethyl)-3-(2-(4-methylpiperazin-1-yl)ethoxy)thiophene-2-carboxamido)piperidin-1-yl)pyrrolo[2,1-f][1,2,4]triazin-7-yl)-2,5-dihydro-1H-pyrrole-1-carboxylate]",9
2,"CC(=O)N1CC=C(c2cc(N3CCC[C@@H](NC(=O)c4cccc(N5C[C@H]6CC[C@@H](C5)N6)n4)C3)c3c(N)ncnn23)C1 [Example 814, N—((R)-1-(7-(1-acetyl-2,5-dihydro-1H-pyrrol-3-yl)-4-aminopyrrolo[2,1-f][1,2,4]triazin-5-yl)piperidin-3-yl)-6-((1R,5S)-3,8-diazabicyclo[3.2.1]octan-3-yl)picolinamide]",9
3,"Nc1ncnn2c(-c3ccnc(C(F)F)c3)cc(N3CCC[C@@H](NC(=O)c4cccs4)C3)c12 [Example 484, (R)-N-(1-(4-amino-7-(2-(difluoromethyl)pyridin-4-yl)pyrrolo[2,1-f][1,2,4]triazin-5-yl)piperidin-3-yl)thiophene-2-carboxamide]",4
4,"Cn1cc(-c2cc(N3CCC[C@@H](NC(=O)c4ccc(Cl)s4)C3)c3c(N)ncnn23)nn1 [Example 868, (R)—N-(1-(4-amino-7-(1-methyl-1H-1,2,3-triazol-4-yl)pyrrolo[2,1-f][1,2,4]triazin-5-yl)piperidin-3-yl)-5-chlorothiophene-2-carboxamide]",114
5,"CC1CN(CCOc2cc(Cl)sc2C(=O)N[C@@H]2CCCN(c3cc(-c4ccnc(C(F)F)c4)n4ncnc(N)c34)C2)CCO1 (stereo partly drawn) [Example 295, N-((R)-1-(4-amino-7-(2-(difluoromethyl)pyridin-4-yl)pyrrolo[2,1-f][1,2,4]triazin-5-yl)piperidin-3-yl)-5-chloro-3-(2-(2-methylmorpholino)ethoxy) thiophene-2-carboxamide]",7
6,"Cc1cc(-c2cc(N3CCC[C@@H](NC(=O)c4ccc(C)s4)C3)c3c(N)ncnn23)ccn1 [Example 133, N-[(3R)-1-[4-amino-7-(2-methylpyridin-4-yl)pyrrolo[2,1-f][1,2,4]triazin-5-yl]piperidin-3-yl]-5-methylthiophene-2-carboxamide]",4
7,"CC(=O)N1CC=C(c2cc(N3CCC[C@@H](NC(=O)c4sc(Cl)cc4OC4CCNCC4F)C3)c3c(N)ncnn23)C1 (stereo partly drawn) [Example 603, N-((R)-1-(7-(1-acetyl-2,5-dihydro-1H-pyrrol-3-y1)-4-aminopyrrolo[2,1-f][1,2,4]triazin-5-yl)piperidin-3-y1)-5-chloro-3-((3-fluoropiperidin-4-yl)oxy)thiophene~2-carboxamide]",7
8,"N#Cc1ccc(-c2cc(N3CCC[C@@H](NC(=O)c4ccc(Cl)s4)C3)c3c(N)ncnn23)s1 [Example 212, (R)-N-(1-(4-amino-7-(5-cyanothiophen-2-yl)pyrrolo[2,1-f][1,2,4]triazin-5-yl)piperidin-3-yl)-5-chlorothiophene-2-carboxamide, TFA]",6
9,"CC(=O)N1CC=C(c2cc(N3CCC[C@@H](NC(=O)c4ccc5ncsc5c4)C3)c3c(N)ncnn23)C1 [Example 452, (R)-N-(1-(7-(1-acetyl-2,5-dihydro-1H-pyrrol-3-yl)-4-aminopyrrolo[2,1-f][1,2,4]triazin-5-yl)piperidin-3-yl)benzo[d]thiazole-6-carboxamide]",198
10,"CCn1cc(-c2cc(N3CCC[C@@H](NC(=O)c4ccc(Cl)s4)C3)c3c(N)ncnn23)ccc1=O [Example 532, (R)-N-(1-(4-amino-7-(1-ethyl-6-oxo-1,6-dihydropyridin-3-yl)pyrrolo[2,1-f][1,2,4]triazin-5-yl)piperidin-3-yl)-5-chlorothiophene-2-carboxamide]",6
11,"Nc1ncnn2c(-c3ccc(=O)n(CC(F)F)c3)cc(N3CCC[C@@H](NC(=O)c4sc(Cl)cc4OC4CN(CC(F)F)C4)C3)c12 [Example 387, (R)-N-(1-(4-amino-7-(1-(2,2-difluoroethyl)-6-oxo-1,6-dihydropyridin-3-yl)pyrrolo[2,1-f][1,2,4]triazin-5-yl)piperidin-3-yl)-5-chloro-3-((1-(2,2-difluoroethyl)azetidin-3-yl)oxy)thiophene-2-carboxamide]",29

# Continued by falling IC50, values first:
row,IC50 [nM],SMILES
1,1300,"CS(=O)(=O)c1ccc(-c2cc(N3CCC[C@@H](NC(=O)C4CCOCC4)C3)c3c(N)ncnn23)cc1 [Example 17, (R)-N-(1-(4-amino-7-(4-(methylsulfonyl)phenyl)pyrrolo[2,1-f][1,2,4]triazin-5-yl)piperidin-3-yl)tetrahydro-2H-pyran-4-carboxamide, TFA]"
2,1300,"CC(=O)N1CC=C(c2cc(N3CCC[C@@H](NC(=O)C4CCC(F)(F)C4)C3)c3c(N)ncnn23)C1 (stereo partly drawn) [Example 712, N-((R)-1-(7-(1-acetyl-2,5-dihydro-1H-pyrrol-3-yl)-4-aminopyrrolo[2,1-f][1,2,4]triazin-5-yl)piperidin-3-yl)-3,3-difluorocyclopentane-1-carboxamide]"
3,400,"CC(=O)N1CC=C(c2cc(N3CCC[C@@H](NC(=O)c4ccc(CN5CCOCC5)cc4)C3)c3c(N)ncnn23)C1 [Example 463, (R)-N-(1-(7-(1-acetyl-2,5-dihydro-1H-pyrrol-3-yl)-4-aminopyrrolo[2,1-f][1,2,4]triazin-5-yl)piperidin-3-yl)-4-(morpholinomethyl)benzamide]"
4,239,"CS(=O)(=O)c1ccc(-c2cc(N3CCCC(NC(=O)c4cccnn4)C3)c3c(N)ncnn23)cc1 (stereo not drawn) [Example 3, N-(1-(4-amino-7-(4-(methylsulfonyl)phenyl)pyrrolo[2,1-f][1,2,4]triazin-5-yl)piperidin-3-yl)pyridazine-3-carboxamide, TFA]"
5,135,"CCn1ccc(C(=O)N[C@@H]2CCCN(c3cc(C4=CCN(C(C)=O)C4)n4ncnc(N)c34)C2)n1 [Example 742, (R)-N-(1-(7-(1-acetyl-2,5-dihydro-1H-pyrrol-3-yl)-4-aminopyrrolo[2,1-f][1,2,4]triazin-5-yl)piperidin-3-yl)-1-ethyl-1H-pyrazole-3-carboxamide]"
6,111,"C#Cc1cc(N2CCC[C@@H](NC(=O)c3ccc(Cl)s3)C2)c2c(N)ncnn12 [Example 862, (R)—N-(1-(4-amino-7-ethynylpyrrolo[2,1-f][1,2,4]triazin-5-yl)piperidin-3-yl)-5-chlorothiophene-2-carboxamide]"
7,67,"COc1cnccc1C(=O)N[C@@H]1CCCN(c2cc(C3=CCN(C(C)=O)C3)n3ncnc(N)c23)C1 [Example 258, (R)—N-(1-(7-(1-acetyl-2,5-dihydro-1H-pyrrol-3-yl)-4-aminopyrrolo[2,1-f][1,2,4]triazin-5-yl)piperidin-3-yl)-3-methoxyisonicotinamide]"
8,54,"N#Cc1ccc(-c2cc(N3CCC[C@@H](NC(=O)c4nc5ccccc5o4)C3)c3c(N)ncnn23)cn1 [Example 650, (R)-N-(1-(4-amino-7-(6-cyanopyridin-3-yl)pyrrolo[2,1-f][1,2,4]triazin-5-yl)piperidin-3-yl)benzo[d]oxazole-2-carboxamide]"
9,41,"CC(=O)N1CC=C(c2cc(N3CCC[C@@H](NC(=O)c4cc5ccccc5n4C)C3)c3c(N)ncnn23)C1 [Example 456, (R)-N-(1-(7-(1-acetyl-2,5-dihydro-1H-pyrrol-3-yl)-4-aminopyrrolo[2,1-f][1,2,4]triazin-5-yl)piperidin-3-yl)-1-methyl-1H-indole-2-carboxamide]"
10,28,"CS(=O)(=O)c1ccc(-c2cc(N3CCC[C@@H](NC(=O)c4ccccc4)C3)c3c(N)ncnn23)cc1 [Example 13, (R)—N-(1-(4-amino-7-(4-(methylsulfonyl)phenyl)pyrrolo[2,1-f][1,2,4]triazin-5-yl)piperidin-3-yl)benzamide]"
11,27,Cc1ccc(C(=O)N[C@@H]2CCCN(c3cc(C4=CN(S(C)(=O)=O)CC4)n4ncnc(N)c34)C2)s1 [Example 125]
12,21,"Cc1cc(C(=O)N[C@@H]2CCCN(c3cc(-c4ccc(S(C)(=O)=O)cc4)n4ncnc(N)c34)C2)cc(C)n1 [Example 35, (R)-N-(1-(4-amino-7-(4-(methylsulfonyl)phenyl)pyrrolo[2,1-f][1,2,4]triazin-5-yl)piperidin-3-yl)-2,6-dimethylisonicotinamide]"
13,19,"Cc1ccc(C(=O)N[C@@H]2CCCN(c3cc(-c4ccc(S(C)(=O)=O)cc4)n4ncnc(N)c34)C2)cc1C [Example 84, (R)-N-(1-(4-amino-7-(4-(methylsulfonyl)phenyl)pyrrolo[2,1-f][1,2,4]triazin-5-yl)piperidin-3-yl)-3,4-dimethylbenzamide, TFA]"
14,15,"Nc1ncnn2c(C3=CCN(C(=O)c4nccs4)C3)cc(N3CCC[C@@H](NC(=O)c4ccc(Cl)s4)C3)c12 [Example 880, (R)—N-(1-(4-amino-7-(1-(thiazole-2-carbonyl)-2,5-dihydro-1H-pyrrol-3-yl)pyrrolo[2,1-f][1,2,4]triazin-5-yl)piperidin-3-yl)-5-chlorothiophene-2-carboxamide]"
15,4,"Nc1ncnn2c(-c3ccnc(C(F)F)c3)cc(N3CCC[C@@H](NC(=O)c4ccc(-c5ccnc(C(F)F)c5)s4)C3)c12 [Example 542, (R)-N-(1-(4-amino-7-(2-(difluoromethyl)pyridin-4-yl)pyrrolo[2,1-f][1,2,4]triazin-5-yl)piperidin-3-yl)-5-(2-(difluoromethyl)pyridin-4-yl)thiophene-2-carboxamide]"
16,3,CC(=O)N1CC=C(c2cc(N3CCC[C@@H](NC(=O)c4ccnc(N5CCN(C)CC5)n4)C3)c3c(N)ncnn23)C1 [Example 741]
